US8039668B2, “Naphthalene-based inhibitors of anti-apoptotic proteins” (Burnham Institute for Medical Research, priority 2008, dated 2011)
pEC50, pIC50, pKd: −log10 of the molar value. Where two headings read alike, the source gives them in different places. Values belong to the compound of their own block, whether it stands above or below them.

Legend:
[1] = molecular target: T1, BCL-XL (Homo sapiens, UniProt Q07817); assay: 1D 1H-NMR binding assay; parameters: key to 1D-^1H NMR: +++, Very Active; ++, Active; +, Mild; −, Weak; conditions: for 1D ^1H-NMR Binding Assay (BCL-XL): Table 9
Method: By observing the aliphatic region of the spectra, binding could be readily detected due to chemical shift changes in active site methyl groups of Ile, Leu, Thr, Val or Ala (region between −0.8 and 0.3 ppm). All experiments were performed with a 600 MHz spectrometer Bruker Avance 600 equipped with four rf channels and z-axis pulse-field gradients.
Target sequence in this assay (Q07817 whole entry): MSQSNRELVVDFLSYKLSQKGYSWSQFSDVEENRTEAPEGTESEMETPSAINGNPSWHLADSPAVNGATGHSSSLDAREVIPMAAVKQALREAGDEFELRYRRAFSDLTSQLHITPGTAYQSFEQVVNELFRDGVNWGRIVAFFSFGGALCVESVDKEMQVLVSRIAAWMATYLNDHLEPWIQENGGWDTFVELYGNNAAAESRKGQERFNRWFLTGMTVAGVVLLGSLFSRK

[2] = molecular target: Bcl-2 (Homo sapiens, UniProt P10415); assay: Competitive fluorescence polarization assay (FPA), Bim BH3 peptide; format: binding
[3] = molecular target: Mcl-1 (Homo sapiens, UniProt Q07820); assay: as above; format: binding
[4] = molecular target: T2, Bfl-1 (Homo sapiens, UniProt Q16548); assay: Competitive fluorescence polarization assay (FPA); format: binding
T2 sequence (Q16548 1-175): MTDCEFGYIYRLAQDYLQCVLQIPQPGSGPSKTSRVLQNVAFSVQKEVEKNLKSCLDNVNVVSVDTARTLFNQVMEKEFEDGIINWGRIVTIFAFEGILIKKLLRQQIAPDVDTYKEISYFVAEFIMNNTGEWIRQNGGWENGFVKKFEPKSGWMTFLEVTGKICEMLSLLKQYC

[5] = molecular target: T1, BCL-XL; assay: Isothermal titration calorimetry (ITC); format: binding
Method: Titrations were performed using a VP-ITC or ITC200 calorimeter from Microcal (Northampton, Mass.). BCL-XL was used at concentrations between 25 and 100 μM in 20 mM sodium phosphate buffer (pH 7.4) and 5-10% DMSO. Titrants were used at concentrations 10-15 fold of that of the protein in the same buffer. Titrations were carried out at 25° C. Data were analyzed using Microcal Origin software provided by the ITC manufacturer (Microcal, Northampton, Mass.).
Target sequence in this assay (Q07817 whole entry): as the sequence (Q07817 whole entry) above

[6] = system: H1299 cell line; assay: Cell viability, ATP-LITE assay; format: cell-based, human; conditions: Homo sapiens, NCI-H1299
Summary of the method: (§1)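 Human cancer lines were seeded at 2000 (H460, H1299), 3000 (PC3) or 10,000 (RS11846) cells/well in F12 or RPMI1640 with 5% FBS. Compounds were added in 0.1% DMSO 24 h after seeding. Viability was read by ATP-LITE luminescence after 72 h and normalized to DMSO controls.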

[7] = system: PC3ML cells; assay: Cell viability, ATP-LITE assay; format: cell-based, human; conditions: for pEC50: Homo sapiens, PC3-ML
Summary of the method: as §1

[8] = system: H460 human lung cell line; assay: Cell viability, ATP-LITE assay; format: cell-based; conditions: for pEC50: Homo sapiens, NCI-H460
Summary of the method: as §1

[9] = system: human lymphoma RS11846 cell line; assay: Apoptosis, Annexin V-FITC and propidium iodide assay; format: cell-based; conditions: Homo sapiens
[10] = system: BP3 human B-cell lymphoma cell line; assay: Annexin V-FITC and propidium iodide assay; format: cell-based; conditions: Homo sapiens, B-cell; Table 3; Annexin V-FITC and propidium iodide assay; read-out: EC50 BP3
[11] = system: Bax/Bak double knockout mouse embryonic fibroblast cells (MEF/DKO); assay: FITC-Annexin V/PI cytotoxicity in Bax/Bak double knockout cells; format: cell-based; conditions: 10 μM
Method: MEF/WT and MEF/DKO cells were seeded in 24-well plate at a seeding density of half a million per well (in 1 ml of DMEM medium supplemented by 10% FCS). […] On the following day, floating cells were pooled with adherent cells harvested after brief incubation with 0.25% Trypsin/EDTA solution (Gibco/In-Vitrogen Inc.). Cells were centrifuged and supernatant was discarded, and cell pellet was re-suspended with 0.2 ml of Annexin-V binding buffer, followed by addition of 1 μl Annexin-FITC and 1 μl PI (propidium iodide). The percentage of viable cells was determined by a 3-color FACSort instrument and data analyzed by Flow-Jo program, scoring Annexin V-negative, PI-negative as viable cells.

[12] = Plasma stability; format: in vitro ADME, rat
Method: Plasma Stability. A 20 μL aliquot of a 10 mM solution in DMSO of the test compound was added to 2.0 mL of heparinized rat plasma (Lampire, P1-150N) to obtain a 100 μM final solution. The mixture was incubated for 1 h at 37.5° C. Aliquots of 100 μL were taken (0, 30 min, 1 h) and diluted with 200 μL of MeOH containing internal standard.

[13] = Liver microsomal stability; format: in vitro ADME, rat
Text: Liver Microsomal Stability.

[14] = system: B6Bcl-2 transgenic mice
Method: Transgenic mice expressing BCL-2 have been described as the B6 line. The BCL-2 transgene res a minigene version of a t(14;18) translocation in which the human BCL-2 gene is fused with the immunoglobulin heavy-chain (IgH) locus and associated IgH enhancer. The transgene was propagated on the Balb/c background.
After 24 hours, B6BCL2 mice were sacrificed by intraperitoneal injection of lethal dose of Avertin. Spleen was removed and weighed. […] Spleen tissue was fixed in z-FIX for 3 days and rinsed in PBS, and saved for histological analysis of spleen (H&E staining and TUNEL assay).

[15] = molecular target: T1, BCL-XL; assay: Competitive fluorescence polarization assay (FPA), Bak BH3 peptide; format: binding; parameters: 100 nM GST-BCL-XL ΔTM protein
Method: For competitive binding assays, 100 nM GST-BCL-XL ΔTM protein was preincubated with the tested compound at varying concentrations in 47.5 μL PBS (pH=7.4) in 96-well black plates at room temperature for 10 min, then 2.5 μL of 100 nM FITC-labeled Bak BH3 peptide was added to produce a final volume of 50 μL. The wild-type and mutant Bak BH3 peptides were included in each assay plate as positive and negative controls, respectively. […] IC50 was determined by fitting the experimental data to a sigmoidal dose-response nonlinear regression model (SigmaPlot 10.0.1, Systat Software, Inc., San Jose, Calif., USA). Data reported are mean of three independent experiments±standard error (SE). […] Fluorescence polarization was measured after 10 min.
Target sequence in this assay (Q07817 1-209 limits assumed): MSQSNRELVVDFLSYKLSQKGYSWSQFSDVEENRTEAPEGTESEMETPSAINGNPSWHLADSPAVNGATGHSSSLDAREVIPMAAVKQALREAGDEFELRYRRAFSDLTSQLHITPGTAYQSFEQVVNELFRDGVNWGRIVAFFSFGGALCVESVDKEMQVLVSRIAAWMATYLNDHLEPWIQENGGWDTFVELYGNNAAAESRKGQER

[16] = system: RS11846 cell line; assay: Cell viability, ATP-LITE assay; format: cell-based; conditions: Homo sapiens, Table 9; read-out: RS11846 EC50 (ATP-LITE assay)
Summary of the method: as §1

[17] = PAMPA cell membrane permeability; format: in vitro ADME; conditions: Table 11; Low/Medium, not defined
Text: PAMPA is parallel artificial membrane permeation assay.

[18] = Table 9, read-out: RS11846 EC50 (Annexin V- and propidium iodide assay)
[19] = Table 9, read-out: FPA IC50 (BCL-XL)

Chain of Bcl-2 (P10415 whole entry): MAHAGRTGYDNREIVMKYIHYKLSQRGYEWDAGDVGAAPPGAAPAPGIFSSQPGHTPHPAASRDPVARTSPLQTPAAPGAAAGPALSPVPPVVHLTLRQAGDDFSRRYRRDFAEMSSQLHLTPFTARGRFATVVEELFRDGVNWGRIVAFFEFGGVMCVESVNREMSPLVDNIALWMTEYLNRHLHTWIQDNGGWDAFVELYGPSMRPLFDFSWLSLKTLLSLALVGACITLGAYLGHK
Chain of Mcl-1 (Q07820 whole entry): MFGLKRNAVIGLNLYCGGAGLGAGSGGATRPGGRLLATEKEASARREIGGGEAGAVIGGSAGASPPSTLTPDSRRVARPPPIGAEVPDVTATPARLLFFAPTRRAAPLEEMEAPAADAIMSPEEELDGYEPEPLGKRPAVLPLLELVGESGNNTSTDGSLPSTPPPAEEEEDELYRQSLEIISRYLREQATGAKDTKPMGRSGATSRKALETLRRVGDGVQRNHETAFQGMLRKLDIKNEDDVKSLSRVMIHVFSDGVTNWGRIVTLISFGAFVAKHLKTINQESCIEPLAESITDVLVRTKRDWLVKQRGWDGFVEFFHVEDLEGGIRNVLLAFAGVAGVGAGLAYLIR

Compound: Cc1cc2c(C(=O)NCC3CCCCC3)c(O)c(O)cc2c(O)c1-c1c(C)cc2c(C(=O)NCC3CCCCC3)c(O)c(O)cc2c1O [Compound 8m, N^5,N^5′-bis(cyclohexylmethyl)-1,1′,6,6′,7,7′-hexahydroxy-3,3′-dimethyl-2,2′-binaphthyl-5,5′-dicarboxamide]
1D-^1H NMR ([1]; Table 3, BCL-XL 25 μM, compound 200 μM): +++
pIC50 [2]: 6.15
pIC50 [3]: 6.11
pIC50 [4]: 5.70
pKd [5]: 6.07
pEC50 ([6]; heading: EC50 H1299, Table 3, ATP-LITE assay, read-out: EC50 H1299): 5.32
pEC50 ([7]; Table 3, ATP-LITE assay, heading: EC50 PC3ML, read-out: EC50 PC3ML): 5.43
pEC50 ([8]; Table 3, ATP-LITE assay, read-out: EC50 H460): 6.39
pEC50 ([9]; Table 3, Annexin V-FITC and propidium iodide assay, heading: EC50 RS11846, read-out: EC50 RS11846): 5.31
pEC50 [10]: 6.05
MEF/DKO cells killed [11]: 20-35%
degraded after 1 hour incubation in rat plasma ([12]; 1 hour): 11%
Plasma stability (T = 1 h) ([12]; Table 6, rat plasma, 1 h): 89%
degraded after 1 hour incubation in rat microsomal preparations ([13]; 1 hour): 10%
Microsomal Stability (T = 1 h) ([13]; Table 6, rat liver microsomes, 1 h): 90%
Tox ([14]; Bcl-2 transgenic mouse, single ip injection 72 μmol/kg): 4+
pIC50 ([15]; read-out: IC50 FPA Bcl-XL): 5.96

1D ^1H-NMR Binding Assay (BCL-XL) [1]: +
pEC50 ([6]; Table 9, read-out: H1299 EC50): 5.62
pEC50 ([7]; Table 9, read-out: PC3ML EC50): 5.52
pEC50 ([8]; Table 9, read-out: H460 EC50): 6.23
pEC50 [9, 18]: 5.26 to 5.52
Cell Permeability [17]: Low
pIC50 [15, 19]: 6.80
Compound: Cc1cc2c(C(=O)c3cccc4ccccc34)c(O)c(O)cc2c(O)c1-c1c(C)cc2c(C(=O)c3cccc4ccccc34)c(O)c(O)cc2c1O [Compound VIII, (1,1′,6,6′,7,7′-hexahydroxy-3,3′-dimethyl-2,2′-binaphthyl-5,5′-diyl)bis(naphthalen-1-ylmethanone)]
pEC50 [16]: 5.74

Compound: Cc1cc2c(C(=O)C(C)(C)C)c(O)c(O)cc2c(O)c1-c1c(C)cc2c(C(=O)C(C)(C)C)c(O)c(O)cc2c1O [Compound XVIII, 1,1′-(1,1′,6,6′,7,7′-hexahydroxy-3,3′-dimethyl-2,2′-binaphthyl-5,5′-diyl)bis(2,2-dimethylpropan-1-one)]
1D ^1H-NMR Binding Assay (BCL-XL) [1]: ++
pEC50 ([9]; read-out: RS11846 EC50 (Annexin V- and propidium iodide assay), Table 9): 4.83
Cell Permeability [17]: Medium

1D ^1H-NMR Binding Assay (BCL-XL) [1]: +++
times/fold more potent than Apogossypol, FP Bcl-2 ([2]; vs Apogossypol): approximately 8
times/fold more potent than Apogossypol, FP Mcl-1 ([3]; vs Apogossypol): ~5
times more potent than Apogossypol, ITC Bcl-XL ([5]; vs Apogossypol): 10
pEC50 ([6]; Table 9, read-out: H1299 EC50): 5.46
pEC50 ([8]; Table 9, read-out: H460 EC50): 6.17
pEC50 [9, 18]: 5.26 to 5.52
Cell Permeability [17]: Medium
pIC50 [15, 19]: 6.72
times more effective than Apogossypol, FP Bcl-XL ([15]; vs Apogossypol): ~20
Compound: Cc1cc2c(C(=O)Cc3ccccc3)c(O)c(O)cc2c(O)c1-c1c(C)cc2c(C(=O)Cc3ccccc3)c(O)c(O)cc2c1O [Compound I, 1,1′-(1,1′,6,6′,7,7′-hexahydroxy-3,3′-dimethyl-2,2′-binaphthyl-5,5′-diyl)bis(2-phenylethanone)]
fold more potent than Apogossypol, PC3ML ([7]; vs Apogossypol): 2-5
times more potent than Apogossypol, H460 ([8]; vs Apogossypol): 4-5
pEC50 [16]: 5.59
reduction of spleen weight ([14]; groups of six mice, compound I): ~40%
reduction in spleen weight ([14]; single BCL-2 transgenic mouse, 60 μmmol/kg): 40%
